Data taken from patent US20140127288A1, “LIPOSOME CONTAINING PYRROLOQUINOLINE QUINONE AND SUGAR” (MITSUBISHI GAS CHEMICAL COMPANY, INC., priority 2011, published 2014).

System: Chinese hamster ovary cells (CHO-DHFR)
Assay: Proliferation study (WST assay)
Type: cell-based
Settings: vs cells treated with culture medium alone; one day incubation
Procedure: Chinese hamster ovary cells (CHO-DHFR; obtained from Dainippon Sumitomo Pharma Co., Ltd.) was cultured in the culture medium, α-MEM+10% fetal calf serum, in an atmosphere of 5% CO2 at 37° C. A 96-well microplate (IWAKI & Co., Ltd.) was used and cells were added to each well at 5000 cells with 100 μl of the culture medium, and the microplate was incubated overnight. After removing the culture medium, a new culture medium containing the liposome composition prepared in Examples 1 to 4 and Comparative Examples 1 to 3 at a predetermined concentration was added to each well. After one day incubation, a test solution in a WST Assay Kit was reacted for 1 hour according to a procedure of the Kit (Dojindo Laboratories), and the absorbance of each well was measured at 450 nm. In WST Assay, the absorbance obtained is proportional to the number of live cells. The liposome compositions prepared in Examples 1 to 4 and Comparative Examples 1 to 3 and […] (for Comparative Example 4) were used as samples, and the samples were diluted by the culture medium and subjected to a test. The concentrations used in the test were 500, 250, 125, 62, 31, 16, 8, 4, 2, 1, 0.5, and 0 μM. In Comparative Example 2, the concentration of the liposome composition was used as the test concentration of the sample. The test was conducted for each sample twice and the average was calculated. […]

For `O=C(O)c1cc(C(=O)O)c2c(n1)C(=O)C(=O)c1cc(C(=O)O)[nH]c1-2` [Comparative Example 4, Pyrroloquinoline quinone disodium], the “Concentration of growth inhibition (total cell number decreases by 10%)” value was 500 µM.
